Marks after values point to notes of the source that are not given here.
Tests used:
male C57BL/6 mice = assay: Amounts of TAG and TC in liver; type: in vivo; conditions: EK100 1, 5, 10 mg/kg/day vs EtOH group; p<0.05; FIG. 2B
[1] = test system: PPAR-α, RXR-α, CPT1, UCP2; assay: Expressions of fatty acid β-oxidation-promoting genes in liver (real-time PCR); type: in vivo, mice; conditions: EK100 1, 5, 10 mg/kg/day vs EtOH group, p<0.05, FIG. 5
Method: (§3) C-4 was put into a 0.8 ml RNAlater containing an RNA stabilizer (Qiagen company, United States), and then the commercial kit (E.Z.N.A™ Tissue RNA kit, purchased from Omega Bio-Tek company, United States) was used to extract the mRNA therein. After that, the mRNA sample obtained therefrom was reverse transcribed to provide cDNA, and then specific primers (as shown in Table 2) were used to conduct real-time polymerase chain reaction (real-time PCR) of the cDNA to observe the expression of each gene in the mouse liver, wherein the operation steps of the real-time polymerase chain reaction were as follows: (i) 2 μl of cDNA (50 ng/μl), 5 μl of SYBR Green (Molecular Probes company, United States, Applied Biosystems/Fast SYBR® Green Master Mix), 2 μl of RNase-free water, 1 μl of forward primer, and 1 μl of reverse primer were well mixed and then centrifuged; (ii) the above sample was put into a real-time polymerase chain reaction system (Applied Biosystems/StepOne Real time PCR system) to detect the expression of each gene, wherein the expression of GAPDH was used as the positive control.
Therefore, the expressions of the above genes in the mouse liver of each group were compared by the analysis method of [Preparation Examples]

[2] = test system: aspartate aminotransferase (AST); assay: Activity of AST in serum; type: in vivo, mice; conditions: EK100 1, 5, 10 mg/kg/day vs EtOH group; p<0.05; FIG. 8
Source text: (§1) It has been known that both aspartate aminotransferase (AST) and alanine aminotransferase (ALT) are amino acid metabolic enzymes, which are widely present in the heart, liver, skeletal muscle, kidney and brain. When cells in organs are injured, AST and ALT will be released into the blood. Therefore, the activities of AST and ALT can be used as the injury markers of the above organs to detect organ injuries, wherein the higher activities of AST and ALT represent that organ injuries are more serious. For example, there is much more ALT in the liver. A higher activity of ALT in the liver would indicate a more serious injury.
(§2) To understand the effects of alcohol consumption and ergostatrien-3β-ol intake on the injury conditions of mice organs, mouse serum samples of each group provided in [Preparation Examples] C-2 (200 μl per group) were placed into automatic dry-biochemistry analyzer (Arkray, Inc., Japan, Spotechem™ EZ, SP-4430) with AST/ALT expert analytic test paper (Arkray, Inc., Japan, Spotechem™ II) to detect the activities of AST and ALT.

[3] = test system: alanine aminotransferase (ALT); assay: Activity of ALT in serum; type: in vivo, mice; conditions: EK100 5 and 10 mg/kg/day (EK100_5X, EK100_10X) vs EtOH group; p<0.05; FIG. 8
Source text: as §1, §2

[4] = test system: Superoxide dismutase (SOD); assay: Activity of SOD in mouse liver; type: in vivo, mice; conditions: for Activity of SOD: liver homogenate, alcoholic liquid diet, 4 weeks
[5] = test system: glutathione peroxidase (GPx); assay: Activity of GPx in mouse liver; type: in vivo, mice; conditions: for Activity of GPx: liver homogenate, alcoholic liquid diet, 4 weeks
[6] = test system: TLR4, MyD88, NF-κB, iNOS, COX-2, α-SMA; assay: Expressions of pro-inflammatory genes in liver (real-time PCR); type: in vivo, mice; conditions: EK100 1, 5, 10 mg/kg/day vs EtOH group, p<0.05, FIG. 10
Method: as §3

ADH, ALDH, CYP2E1, CAT = assay: Gene expressions of alcohol metabolism-related enzymes in liver (real-time PCR); type: in vivo, mice; conditions: EK100 1, 5, 10 mg/kg/day vs EtOH group; p<0.05; FIG. 12
Method: as §3
The expressions of alcohol metabolism-related enzymes (i.e., ADH, ALDH, CYP2E1, and CAT) in mouse liver of each group were compared by the analysis method of [Preparation Examples]

[7] = test system: alcohol dehydrogenase (ADH); assay: Activity of ADH in liver homogenate; type: in vivo, mice; conditions: EK100 1, 5, 10 mg/kg/day vs control or EtOH group; p<0.05; FIG. 14A
Method: D-3 were analyzed. The operation steps were as follows: (i) 50 μl of liver homogenate, 50 μl of phosphate-buffered saline (PBS), and 1 ml of 0.1 M glycine-NaOH buffer (pH 10.8, 10 mM NAD^+) were well mixed; the mixture was left standing in the dark at room temperature for 4 minutes; and then the absorbance (A) of the mixture was measured at 340 nm wavelength; (ii) 50 μl of liver homogenate, 50 μl of phosphate-buffered saline (PBS), and 1 ml of 0.1 M glycine-NaOH buffer (pH 10.8, 10 mM NAD^+, 0.016 M ethanol) were well mixed; the mixture was left standing in the dark at room temperature for 4 minutes; and then the absorbance (B) of the mixture was measured at 340 nm wavelength; (iii) absorbance (A) and absorbance (B) were substituted into formula 2 below to calculate the activity of ADH (μmole/min/mg protein).

[8] = Alcohol concentration in mouse serum; type: in vivo, mice; conditions: EK100 1, 5, 10 mg/kg/day vs EtOH group; p<0.05; FIG. 15
Method: C-3. At the end of week 4, the mice were fasted for 8 hours. Then, mice blood was collected by orbital sinus blood collection with capillary blood collection needles (for all of the 8 mice from each group). The mice blood was left standing for 1 hour and then centrifuged by a refrigerated microcentrifuge (Kubota corporation, model number: 3700) to separate the supernatant serum. The supernatant serum was stored at −80° C. for the following analysis.
Mouse serum samples of each group provided in [Preparation Examples] C-2 were well mixed with ADH and NAD^+ reagents in a commercial kit (Dade-Berhring company, England, Emit® II Plus Ethyl alcohol assay), and then the alcohol concentrations in the above serum samples were measured by an automatic biochemistry analyzer (Olympus company, Japan, AU2700) at 340 nm wavelength.

[9] = EK100 10 mg/kg/day (EK100_10X) vs EtOH group, p<0.05

CC(C)[C@@H](C)/C=C/[C@@H](C)[C@H]1CC[C@H]2C3=CCC4C[C@@H](O)CC[C@]4(C)C3=CC[C@]12C (some centres unmarked) [EK100]
Amount of TAG in liver compared to EtOH (male C57BL/6 mice): significantly decreased | Amount of TC in liver compared to EtOH (male C57BL/6 mice): significantly decreased | Expressions of fatty acid β-oxidation-promoting genes in liver compared to EtOH [1]: significantly increased | Activity of AST in serum compared to EtOH [2]: significantly decreased | Activity of ALT in serum compared to EtOH [3]: significantly decreased | Activity of SOD in liver compared to EtOH [4, 9]: significantly increased | Activity of SOD ([4]; EK100_1X: 1 mg/kg/day gavage): 77.56 ± 3.33^c munit/mg protein | Activity of SOD ([4]; EK100_5X: 5 mg/kg/day gavage): 90.40 ± 6.16^b munit/mg protein | Activity of SOD ([4]; EK100_10X: 10 mg/kg/day gavage): 118.47 ± 4.64^a munit/mg protein | Activity of GPx in liver compared to EtOH [5, 9]: significantly increased | Activity of GPx ([5]; EK100_1X: 1 mg/kg/day gavage): 114.16 ± 2.40^b unit/mg protein | Activity of GPx ([5]; EK100_5X: 5 mg/kg/day gavage): 110.74 ± 3.52^b unit/mg protein | Activity of GPx ([5]; EK100_10X: 10 mg/kg/day gavage): 131.89 ± 6.83^a unit/mg protein | Expressions of pro-inflammatory genes in liver compared to EtOH [6]: significantly decreased | Gene expression of ADH in liver compared to EtOH (ADH, ALDH, CYP2E1, CAT): significantly increased | Gene expression of ALDH in liver compared to EtOH (ADH, ALDH, CYP2E1, CAT): significantly increased | Gene expression of CAT in liver compared to EtOH (ADH, ALDH, CYP2E1, CAT): significantly increased | Gene expression of CYP2E1 in liver compared to EtOH (ADH, ALDH, CYP2E1, CAT): significantly decreased | Activity of ADH in liver compared to control or EtOH [7]: significantly increased | Alcohol concentration in serum compared to EtOH [8]: significantly decreased

Source: US20170216315A1 (priority 2016, published 2017)
